From patent US20100069451A1, “SALT OF 3-BENZYL-2-METHYL-2,3,3A,4,5,6,7, 7A- OCTAHYDROBENZO[D]ISOXAZOL-4-ONE” (ABIOGEN PHARMA S.P.A, priority 2006, published 2010) come the findings set out here.

A short description of data set [1]: Absorption kinetic after oral administration: plasma concentration of BTG 1640. The format is in vivo, rats Sprague Dawley. The following applies: rat. Here is the method: Absorption extent and rate of molecule BTG 1640 in its forms of oxalate and hydrochloride salts were evaluated.
With this intent, the two salts were dispersed in an aqueous suspension of arabic gum at 5% thus obtaining two formulations, each one orally administered through oesophageous gavage at dose of 10 mg/kg (expressed as free base of BTG 1640) to five rats Sprague Dawley.
Plasma concentration of molecule BTG 1640 was determined at different time points (see Table 7).

Data set [2] can be described thus: Stability test of BTG 1640 salts under storage conditions: total impurities. The format is physicochemical. The following applies: for Impurity profile (in words): condition d): 40° C./75% RH. Here is the method: Contemporaneously, the impurity analysis in the conditions a)-d) of T/% RH were carried out.
As a confirmation of such evidence, a test for the evaluation of the impurity percentage of the sample subjected to the same conditions a)-d) of T/% RH was parallely carried out. The experimental values in Table 4 were obtained.

Data set [3] is described as follows: Stability test of BTG 1640 salts under storage conditions: purity. The following applies: for Purity %: time 0 (months). The format is physicochemical. Here is the method:
Samples of 100 mg each of BTG 1640 hydrochloride were subjected to the following preservation conditions:
The purities were then analyzed periodically, initially every three months, in order to underline possible variations.
Samples of 100 mg each of BTG 1640 oxalate prepared according to example 1B were subjected to the following preservation conditions:
Quarterly and in an overall period of nine months its purity was then analyzed in order to point out possible variations.
The stabilities were then evaluated by subjecting samples of 100 mg of each salt to the following analogous preservation conditions:
Quarterly and in an overall period of nine months their purity was then analyzed in order to underline possible variations.

For the next data set, the system named is female CD-1 mice. Nature of the data set: Acute oral toxicity. The format is in vivo. The following applies: for Clinical signs / Histopathological examination of kidneys: female CD-1 mice. Here is the method: Acute oral toxicity of salts hydrochloride and oxalate of BTG-1640 was evaluated.
The two salts were dispersed in an aqueous suspension, thus obtaining two formulations, each one orally administered through oesophageous gavage at dose of 2000 mg/kg bw (expressed as free base of BTG 1640) to one of two groups comprising three female CD-1 mice per group.
The observation lasted 14 days.

[4] abbreviates: T = 25° C., humidity 60% RH, time 0 (months).
The mark [5] stands for this setting: T = 30° C., humidity 65% RH, time 0 (months).
[6] abbreviates: T = 40° C., humidity 75% RH, time 0 (months).
Setting [7] is: condition d): 40° C./75% RH, up to six months.
The mark [8] stands for this setting: 2000 mg/kg bw oral (as free base).
The mark [9] stands for this setting: Sprague Dawley, in vivo, po, 10 mg/kg.

Counter-ions that a name gives are not always drawn. Like-named read-outs stand apart in the source and are kept apart here.

With `CN1OC2CCCC(=O)C2C1Cc1ccccc1.Cl` (stereo not drawn) [BTG 1640 hydrochloride, reference compound], the “BTG 1640 free base concentration in plasma” value in data set [1] (oral gavage 10 mg/kg (as free base), 5% arabic gum suspension, 300 minutes) is 0 µg/mL. The “% impurities” value in data set [2] (T = 5° C., time 0 (months)) was 0.36%; in data set [2] (setting [4]), 0.36%; in data set [2] (setting [5]) it was 0.36%; in data set [2] (setting [6]) it was 0.36%. The “Impurity profile (in words)” value in data set [2] is “unacceptable percentage of impurities”. In addition, the “Stability (in words)” value in data set [3] (setting [7]) is given as “strong instability”; in data set [3] (conditions a)-c): 5° C., 25° C./60% RH, 30° C./65% RH, 12 months), “good stability”. Moreover, in data set [3] (indicated on the basis of the stability results, preserved at 2-8° C.), the Validity time period is given as 12 months. Besides, the Clinical signs entry with female CD-1 mice (setting [8]) is “Lethargy, ataxia, aggressiveness and vocalization”. In addition, the “Histopathological examination of kidneys” value in the data set with female CD-1 mice (setting [8]) is “small foci of acute tubular necrosis in the cortex, balloon degeneration of the epithelium and dilatation of convoluted tubules”. In addition, the Lethality entry in the data set with female CD-1 mice (2000 mg/kg bw oral (as free base), three female CD-1 mice, 14 days observation) is given as “lethal in two animals out of three”.
Take `CN1OC2CCCC(=O)C2C1Cc1ccccc1.O=C(O)/C=C\C(=O)O` (stereo not drawn) [BTG 1640 maleate]: the “% impurities” value in data set [2] (setting [4]) and in data set [2] (setting [5]) was 0.23% throughout. In addition, the “Stability (in words)” value in data set [3] (condition c) 30° C./65% RH, at sixth month) is given as “considerable degradation”; in data set [3] (setting [7]) it was “degrades in unacceptable way”; in data set [3] (conditions a) and b)), “acceptable profile”. Besides, the “Stability compared with BTG 1640 hydrochloride (in words)” value in data set [3] (conditions a)-d)) is listed as “even worse”.
Take `CN1OC2CCCC(=O)C2C1Cc1ccccc1.CS(=O)(=O)O` (stereo not drawn) [BTG 1640 methanesulphonate]: the “% impurities” value in data set [2] (setting [4]) and in data set [2] (setting [5]) was 0.42% throughout. Further, the “Stability compared with BTG 1640 hydrochloride (in words)” value in data set [3] (conditions a)-d)) was “even worse”. In addition, the “Stability (in words)” value in data set [3] (conditions b)-d)) was “begins to degrade already after three months”.
In data set [1] (setting [9]), `CN1OC2CCCC(=O)C2C1Cc1ccccc1` [BTG 1640 oxalate, oxalate salt of rel-(3R,3aS,7aS)-3-benzyl-2-methyl-2,3,3a,4,5,6,7,7a-octahydrobenzo[d]isoxazol-4-one] yielded a concentration at 2 minutes of 2050 ng/mL. In data set [1] (setting [9]), this compound had a concentration at 5 minutes of 1870 ng/mL. Also, the concentration at 30 minutes in data set [1] (setting [9]) came out at 390 ng/mL. Moreover, in data set [1] (setting [9]), the concentration at 300 minutes came out at 0 ng/mL. Also, in data set [1] (in vivo, po, 10 mg/kg), the “Absorption compared with hydrochloride (in words)” value is reported as “higher absorption”. The “% impurities” value in data set [2] (T = 5° C., time 0 (months)) was 0.27%; in data set [2] (T = 5° C., time 3 (months)) it was 0.33%; in data set [2] (T = 5° C., time 9 (months)) it was 0.29%; in data set [2] (setting [4]) it was 0.27%; in data set [2] (T = 25° C., humidity 60% RH, time 3 (months)), 0.30%; in data set [2] (setting [5]) it was 0.27%. In addition, the “% impurities” value in data set [2] (T = 30° C., humidity 65% RH, time 3 (months)) was determined as 0.28%; in data set [2] (setting [6]), 0.27%. Besides, the “Impurity profile (in words)” value in data set [2] was “invariable impurity profile”. Further, the “Stability compared with BTG 1640 hydrochloride (in words)” value in data set [3] is on record as “higher stability”. The Purity % is reported as 99.7% in data set [3] (T = 5° C.); 99.7% in data set [3] (T = 25° C., humidity 60% RH); 99.7% in data set [3] (T = 30° C., humidity 65% RH); 99.7% in data set [3] (T = 40° C., humidity 75% RH). For the same compound, the Clinical signs result in the data set with female CD-1 mice (setting [8]) is listed as “quickly reversible neurological signs”. Further, the “Histopathological examination of kidneys” value in the data set with female CD-1 mice (setting [8]) is “focal and moderate balloon degeneration of the epithelium in convoluted tubules”. For the same compound, in the data set with female CD-1 mice (2000 mg/kg bw oral, female mice), the “Toxicity compared with hydrochloride (in words)” value is “less toxic”.
Turning to `CN1OC2CCCC(=O)C2C1Cc1ccccc1.O=C(O)CCC(=O)O` (stereo not drawn) [BTG 1640 succinate], the “% impurities” value in data set [2] (setting [4]) and in data set [2] (setting [5]) was 0.77% throughout. Moreover, the “Stability (in words)” value in data set [3] (all observation conditions a)-d), from the third month) was “shows degradation”. Moreover, in data set [3] (conditions a)-d)), the “Stability compared with BTG 1640 hydrochloride (in words)” value is recorded as “even worse”.
